Assay results from ChEMBL document CHEMBL1201862, “PubChem BioAssay data set” (2004).
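Protocol summary: plate cells (96-well), add compound at 5 concentrations, incubate 48 h, interpolate endpoints linearly. GI50 is the concentration that inhibits growth by half.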 Activity calls are given as the source filed them. No stated cut-off is given here; in the data, active = GI50 up to about 1.1 µM and inactive = higher.

Key:
Experiment in all cases: NCI-60 cell line screen, 48 h
[1] = test system: NCI-H23
[2] = test system: HCC 2998
[3] = test system: OVCAR-5
[4] = test system: NCI-H226
[5] = test system: TK-10
[6] = test system: SK-MEL-2
[7] = test system: SW-620
[8] = test system: SR
[9] = test system: OVCAR-8
[10] = test system: MOLT-4
[11] = test system: T47D
[12] = test system: A498
[13] = test system: NCI/ADR-RES
[14] = test system: RPMI-8226
[15] = test system: PC-3
[16] = test system: UACC-257
[17] = test system: 786-0
[18] = test system: HCT-116
[19] = test system: CCRF-CEM
[20] = test system: OVCAR-4
[21] = test system: UO-31
[22] = test system: DU-145
[23] = test system: CAKI-1
[24] = test system: LOX IMVI
[25] = test system: COLO 205
[26] = test system: RXF 393
[27] = test system: Malme-3M
[28] = test system: SK-OV-3
[29] = test system: SK-MEL-28
[30] = test system: HL-60
[31] = test system: UACC-62
[32] = test system: KM12
[33] = test system: SN12C
[34] = test system: SNB-75
[35] = test system: MDA-N
[36] = test system: NCI-H460
[37] = test system: U-251
[38] = test system: A549
[39] = test system: BT-549
[40] = test system: Hs-578T
[41] = test system: EKVX
[42] = test system: OVCAR-3
[43] = test system: MDA-MB-435
[44] = test system: SF-539
[45] = test system: MDA-MB-231
[46] = test system: MCF7
[47] = test system: M14
[48] = test system: HCT-15
[49] = test system: HT-29
[50] = test system: K562
[51] = test system: SNB-19
[52] = test system: NCI-H522
[53] = test system: SK-MEL-5
[54] = test system: SF-268
[55] = test system: IGROV-1
[56] = test system: HOP-62
[57] = test system: ACHN
[58] = test system: HOP-92
[59] = test system: SF-295

COc1ccccc1-n1c(=O)n(C)c(=O)n1C(C)(C)C
GI50 [1]: > 100 µM (inactive)
GI50 [2]: 0.288 µM (active)
GI50 [3]: > 100 µM (inactive)
GI50 [4]: > 100 µM (inactive)
GI50 [5]: > 100 µM (inactive)
GI50 [6]: > 100 µM (inactive)
GI50 [7]: > 100 µM (inactive)
GI50 [8]: > 100 µM (inactive)
GI50 [9]: > 100 µM (inactive)
GI50 [10]: > 100 µM (inactive)
GI50 [11]: > 100 µM (inactive)
GI50 [12]: > 100 µM (inactive)
GI50 [13]: > 100 µM (inactive)
GI50 [14]: > 100 µM (inactive)
GI50 [15]: > 100 µM (inactive)
GI50 [16]: > 100 µM (inactive)
GI50 [17]: > 100 µM (inactive)
GI50 [18]: > 100 µM (inactive)
GI50 [19]: > 100 µM (inactive)
GI50 [20]: > 100 µM (inactive)
GI50 [21]: > 100 µM (inactive)
GI50 [22]: > 100 µM (inactive)
GI50 [23]: > 100 µM (inactive)
GI50 [24]: > 100 µM (inactive)
GI50 [25]: > 100 µM (inactive)
GI50 [26]: > 100 µM (inactive)
GI50 [27]: > 100 µM (inactive)
GI50 [28]: > 100 µM (inactive)
GI50 [29]: > 100 µM (inactive)
GI50 [30]: > 100 µM (inactive)
GI50 [31]: > 100 µM (inactive)
GI50 [32]: > 100 µM (inactive)
GI50 [33]: > 100 µM (inactive)
GI50 [34]: > 100 µM (inactive)
GI50 [35]: > 100 µM (inactive)
GI50 [36]: > 100 µM (inactive)
GI50 [37]: > 100 µM (inactive)
GI50 [38]: > 100 µM (inactive)
GI50 [39]: > 100 µM (inactive)
GI50 [40]: > 100 µM (inactive)
GI50 [41]: > 100 µM (inactive)
GI50 [42]: > 100 µM (inactive)
GI50 [43]: > 100 µM (inactive)
GI50 [44]: > 100 µM (inactive)
GI50 [45]: > 100 µM (inactive)
GI50 [46]: > 100 µM (inactive)
GI50 [47]: > 100 µM (inactive)
GI50 [48]: > 100 µM
GI50 [49]: > 100 µM (inactive)
GI50 [50]: > 100 µM (inactive)
GI50 [51]: > 100 µM (inactive)
GI50 [52]: 29.3 µM (inactive)
GI50 [53]: > 100 µM (inactive)
GI50 [54]: > 100 µM (inactive)

COC(=O)c1cc(C(=CCC[C@H]2CC[C@@]3(C)C(CCC4C3CC[C@@]3(C)C4CC[C@@H]3C(C)CCCC(C)C)C2)c2cc(Cl)c(OC(=O)c3ccccc3)c(C(=O)OC)c2)cc(Cl)c1OC(=O)c1ccccc1 (some centres not stated)
GI50 [55]: > 10 µM (inactive)
GI50 [1]: > 10 µM (inactive)
GI50 [2]: > 10 µM (inactive)
GI50 [3]: > 10 µM (inactive)
GI50 [4]: > 10 µM (inactive)
GI50 [5]: > 10 µM (inactive)
GI50 [6]: > 10 µM (inactive)
GI50 [7]: > 10 µM (inactive)
GI50 [8]: > 10 µM (inactive)
GI50 [9]: > 10 µM (inactive)
GI50 [10]: > 10 µM (inactive)
GI50 [11]: > 10 µM (inactive)
GI50 [13]: > 10 µM (inactive)
GI50 [14]: > 10 µM (inactive)
GI50 [15]: > 10 µM (inactive)
GI50 [16]: > 10 µM (inactive)
GI50 [17]: > 10 µM (inactive)
GI50 [18]: > 10 µM (inactive)
GI50 [19]: > 10 µM (inactive)
GI50 [20]: > 10 µM (inactive)
GI50 [21]: > 10 µM (inactive)
GI50 [22]: > 10 µM (inactive)
GI50 [23]: > 10 µM (inactive)
GI50 [24]: > 10 µM (inactive)
GI50 [25]: > 10 µM (inactive)
GI50 [26]: > 10 µM (inactive)
GI50 [27]: > 10 µM (inactive)
GI50 [28]: > 10 µM (inactive)
GI50 [29]: > 10 µM (inactive)
GI50 [56]: > 10 µM (inactive)
GI50 [30]: > 10 µM (inactive)
GI50 [31]: > 10 µM (inactive)
GI50 [32]: > 10 µM (inactive)
GI50 [57]: > 10 µM (inactive)
GI50 [33]: > 10 µM (inactive)
GI50 [34]: > 10 µM (inactive)
GI50 [35]: > 10 µM (inactive)
GI50 [36]: > 10 µM (inactive)
GI50 [37]: > 10 µM (inactive)
GI50 [38]: > 10 µM (inactive)
GI50 [39]: > 10 µM (inactive)
GI50 [40]: > 10 µM (inactive)
GI50 [41]: > 10 µM (inactive)
GI50 [42]: > 10 µM (inactive)
GI50 [43]: > 10 µM (inactive)
GI50 [44]: > 10 µM (inactive)
GI50 [45]: > 10 µM (inactive)
GI50 [46]: > 10 µM (inactive)
GI50 [47]: > 10 µM (inactive)
GI50 [48]: > 10 µM
GI50 [49]: > 10 µM (inactive)
GI50 [50]: > 10 µM (inactive)
GI50 [51]: > 10 µM (inactive)
GI50 [58]: > 10 µM (inactive)
GI50 [52]: > 10 µM (inactive)
GI50 [59]: > 10 µM (inactive)
GI50 [53]: > 10 µM (inactive)
GI50 [54]: > 10 µM (inactive)
